“And” between values parts separate entries of the source, which are not always exact repeats. Equal entries are not always repeated. Where two headings read alike, the source gives them in different places.
Experiments:
[1] = system: KYSE-150 human esophageal cancer xenograft; format: in vivo; conditions: for Median Tumor Volumes Day 21: KYSE-150 CDX Study #2, female NOD/SCID mice; for % TGI / Median Tumor Volumes Diff.: KYSE-150 Study #2; for % TGI: Day 21; for Median Tumor Volumes Diff.: Day 21 minus Day 1
Protocol: (§1) The therapeutic in vivo efficacy of Compound 1 was evaluated in SU60 colorectal cancer, KYSE-150 esophageal cancer, COH70 triple-negative breast cancer, GXA-3036 gastric adenocarcinoma and OCI-LY19 Diffuse Large B-Cell Non-Hodgkin's Lymphoma xenograft models. In all studies, efficacy was determined based on percent tumor growth inhibition (TGI), differences in mean tumor growth, and statistical assessment of differences in net tumor volume distributions on the day of TGI analysis between control and treated animals. Tolerability was assessed based on differences in mean body weights between control and treated animals over the course of the study.
Study #2—The in vivo therapeutic efficacy and tolerability of Compound 1, administered orally as the lysine salt suspended in a vehicle comprised of 10% PEG 400 and 90% of 0.5% MC, was evaluated in the KYSE-150 ESCC CDX model established in female NOD/SCID mice. Each mouse was inoculated subcutaneously in the right flank with 1×10^7 KYSE-150 tumor cells (0.1 ml) suspended in 50% Matrigel. When the average tumor size reached ˜153 mm3, test animals were randomized into 4 groups consisting of 8 mice per group and treatments were initiated. Control mice received 10% PEG 400 and 90% of 0.5% MC vehicle PO QDx21. Treated mice received the Compound 1 lysine salt form suspended in vehicle at 10, 15, or 20 mg/kg on the same schedule. TGI was determined on Day 21 as (1−Difftreated/Diffcontrol)×100. Individual tumors were measured twice weekly in two dimensions using a caliper, and the tumor volumes (TV) in mm3 were calculated using the formula: TV=0.5 a×b2, where a and b are the long and short tumor diameters in mm, respectively; Mean tumor volumes±SEM were calculated and plotted versus days of dosing (FIG. 12 left panel). Body weights were measured twice weekly. Body weights±SEM were calculated and plotted versus days of dosing (FIG. 12 right panel).
The difference in mean net tumor volumes on the day of TGI analysis for treated versus control animals was evaluated statistically using one-way ANOVA followed by Dunnetts multiple comparisons test. Adjusted p-values are shown where a calculated probability (p)≤0.05 was considered statistically significant.

[2] = system: COH70 patient-derived triple negative breast cancer xenograft; assay: in vivo efficacy, COH70 patient-derived triple negative breast cancer xenograft model; conditions: COH70 TNBC PDX; for % TGI: Day 36; for Median Tumor Volumes Diff.: Day 36 minus Day 1
Protocol: as §1
The in vivo therapeutic efficacy and tolerability of Compound 1, administered orally as the free acid form in a PBS vehicle plus two equivalents of NaOH (final pH 10), was evaluated in a dose range study using the COH70 TNBC PDX model established in female NSG mice. Each mouse was inoculated subcutaneously in the abdomen with 2×10^6 COH70 tumor cells (0.2 ml) suspended in Matrigel. When the average tumor size reached ˜107 mm3, test animals were randomized into 5 groups consisting of 9 mice per group and treatments were initiated. Control mice received PBS (pH 10) vehicle PO QDx36. Treated mice received Compound 1 (dissolved in PBS+2 equivalents of NaOH, final pH 10) PO at 50, 40, 25, or 12.5 mg/kg QDx36. TGI was determined on Day 36 as (1−Difftreated/Diffcontrol)×100. Individual tumors were measured twice weekly in two dimensions using a caliper, and the tumor volumes (TV) in mm3 were calculated using the formula: TV=0.5 (l×w×h), where l, w, and h are the tumor length, width, and height in mm, respectively. Mean tumor volumes±SEM were calculated and plotted versus days of dosing (left panel). Body weights were measured twice weekly. Body weights±SEM were calculated and plotted versus days of dosing (right panel).

[3] = system: SU103 patient-derived colon cancer organoid model; assay: organoid colony formation assay, SU103; format: cell-based, human
Protocol: (§2) The IC50 values for Compound 1 inhibition of colony formation and viability were determined for the patient-derived colon cancer organoid models: SU60, T002C, SU62, SU34, SU103, T03SC, and SU106, patient-derived pancreatic cancer organoid models PA016SF, PA0143F, T016P, and T028P, and a patient-derived breast cancer organoid model FS5S3.
(§3) Colony formation and viability assays were performed in multiwell plates seeded with organoids using an in vitro culture system composed of a Matrigel layer, media containing a defined set of growth factors, and co-culture with Wnt3 A-secreting mouse embryonic fibroblasts. Assays were initiated by adding either DMSO as a negative control, or an inhibitor panobinostatat 100×IC50 concentration as a positive control, or serially diluted Compound 1. The cultures were incubated for 168 or 144 hours after which the number of viable organoids in each test well was assessed respectively using one of two detection methods: CTG or staining with calcein-AM followed by imaging and colony counting. Colony count or viability of cells treated with compound 1 was expressed as a percent of the negative control. Aggregated Percent of Control values were plotted against the corresponding Compound 1 concentration and the absolute IC50 value was determined from a non-linear regression curve as the concentration where inhibition was 50% of the control.

[4] = system: KDM4; assay: inhibition of H3K9me3 demethylation, TR-FRET LANCE detection; format: biochemical; conditions: in the presence of α-KG
Protocol: Inhibition of […] demethylation was measured at various Compound 1 concentrations in the presence of α-KG using time-resolved fluorescence-based (TR-FRET) LANCE® detection.

[5] = system: SU106 patient-derived colon cancer organoid model; assay: organoid colony formation assay, SU106; format: cell-based, human
Protocol: as §2, §3

[6] = system: colorectal cancer PDX models; assay: culture-based viability inhibition assay, colorectal cancer PDX models; format: cell-based; conditions: for IC50: read-out: IC50 (range over sensitive models); for Sensitive to Compound 1 (models sensitive/tested): sensitive = IC50<1 μM
Protocol: A panel of 13 colorectal cancer PDX models and 6 colorectal cancer organoid PDX models were tested for their sensitivity to Compound 1 in culture-based viability inhibition assays. The MSI-H status of the studied colorectal cancer cell lines and their respective mutations of the MMR path genes are shown in FIG. 19.

[7] = MSI colorectal cancer PDX models
[8] = MSS colorectal cancer PDX models

In the case of `CC(C)c1ccc(N(C)c2ccc3c(c2)OCC[C@H]3CNc2cnccc2C(=O)O)cc1` [Compound 1, 3-({[(4R)-7-{methyl[4-(propan-2-yl)phenyl]amino}-3,4-dihydro-2H-1-benzopyran-4-yl]methyl}amino)pyridine-4-carboxylic acid], the “Median Tumor Volumes Day 21” value ([1]; lysine salt 10 mg/kg (free acid equivalents) PO QD x21) is reported as 1027 mm^3, the “Median Tumor Volumes Day 21” value ([1]; lysine salt 15 mg/kg (free acid equivalents) PO QD x21) is reported as 620 mm^3 and the “Median Tumor Volumes Day 21” value ([1]; lysine salt 20 mg/kg (free acid equivalents) PO QD x21) is reported as 469 mm^3. For the same molecule, the “% TGI” value ([1]; 10 mg/kg PO QD x21) was 54%, the “Median Tumor Volumes Diff.” value ([1]; 10 mg/kg PO QD x21) was 876 mm^3 and the “% TGI” value ([1]; 15 mg/kg PO QD x21) was 76%. For the same molecule, the “Median Tumor Volumes Diff.” value ([1]; 15 mg/kg PO QD x21) was 468 mm^3, the “% TGI” value ([1]; 20 mg/kg PO QD x21) was 84% and the “Median Tumor Volumes Diff.” value ([1]; 20 mg/kg PO QD x21) was 315 mm^3. For the same molecule, the “tolerability (dose-dependent mean body weight changes)” value ([2]; female NSG mice, 12.5-50 mg/kg PO QD x36) was “well-tolerated”, the “mean body weight loss” value ([2]; female NSG mice, PO QD x36, over the course of the study) was 6.5% and the “Median Tumor Volumes Day 36” value ([2]; female NSG mice, free acid 12.5 mg/kg PO QD x36) was 685 mm^3. For the same molecule, the “Median Tumor Volumes Day 36” value ([2]; female NSG mice, free acid 25 mg/kg PO QD x36) was 524 mm^3, the “Median Tumor Volumes Day 36” value ([2]; female NSG mice, free acid 40 mg/kg PO QD x36) was 282 mm^3 and the “Median Tumor Volumes Day 36” value ([2]; female NSG mice, free acid 50 mg/kg PO QD x36) was 295 mm^3. The “% TGI” value ([2]; 12.5 mg/kg PO QD x36) was 57%, the “Median Tumor Volumes Diff.” value ([2]; 12.5 mg/kg PO QD x36) was 581 mm^3 and the “% TGI” value ([2]; 25 mg/kg PO QD x36) was 68%. For the same molecule, the “Median Tumor Volumes Diff.” value ([2]; 25 mg/kg PO QD x36) was 424 mm^3, the “% TGI” value ([2]; 40 mg/kg PO QD x36) was 86% and the “Median Tumor Volumes Diff.” value ([2]; 40 mg/kg PO QD x36) was 184 mm^3. For the same molecule, the “% TGI” value ([2]; 50 mg/kg PO QD x36) was 86%, the “Median Tumor Volumes Diff.” value ([2]; 50 mg/kg PO QD x36) was 191 mm^3 and the IC50 ([3]; Homo sapiens, SU103 colorectal carcinoma model) was greater than 10 µM. The IC50 ([3]; SU103 human colorectal carcinoma organoid, 144 hrs, Colony Counts) was greater than 10 µM, the “mode of inhibition of H3K9me3 demethylation” value [4] was “reversible and competitive inhibition” and the IC50 ([5]; Homo sapiens, SU106 colorectal carcinoma model) was greater than 10 µM. The IC50 ([5]; SU106 human colorectal carcinoma organoid, 144 hrs, Colony Counts) was greater than 10 µM, the IC50 [6, 7] was 0.001 to 0.014 µM and the “Sensitive to Compound 1 (models sensitive/tested)” value [6, 7] was 5 out of 5 and 5/5. The IC50 [6, 8] was 0.003 to 0.27 µM and the “Sensitive to Compound 1 (models sensitive/tested)” value [6, 8] was 4 out of 8 and 4/8.
